The source of these data is US8257915B2, “Farnesyltransferase inhibitors for treatment of laminopathies, cellular aging and atherosclerosis” (Progeria Research Foundation, Inc., priority 2002, dated 2012).

“Also recorded” adds a separate entry of the source.

Data set [1] relates to BCR/ABL. Particulars: cell culture and mouse models; cited from earlier work.
The subject of data set [2] is several human cancer cell lines. As to conditions: cited from earlier work.
Data set [3] deals with HGPS fibroblast lines AG06917, AG11513, AG11498. The data set can be described thus: Nuclear blebbing of HGPS skin fibroblasts treated with FTI. It is filed as cell-based, human. Particulars: once daily 0, 0.5, 1.0, 2.0 μM for three days; p<0.0001. On the procedure: Cell Culture. Cell lines used were the normal human fibroblast line, AG06299, and HGPS fibroblast lines: AG06917, AG11513, and AG11498 (obtained from the NIA Aging Cell Culture Repository, Coriell Institute for Medical Research, Camden, N.J.). Fibroblasts were cultured in minimal essential medium (MEM; Invitrogen/Gibco) supplemented with 15% FBS (HiClone), 2 mM L-glutamine, penicillin (50 U/ml) and streptomycin ([…]). HeLa and HEK-293 cell lines were cultured in DMEM (Invitrogen/Gibco) supplemented with 10% fetal bovine serum and antibiotics.
(§1) FTI Treatment. At the time of transient transfection, HeLa cells were treated with one dose of 0, 0.5, 1.0, or 2.0 μM of the selective FTI lonafarnib [Sarasar, SCH66336, (Schering-Plough)]. HEK-293 cells were treated with one dose of 0, 1, 2, 5, or 10 μM of the selective FTI L-744832 (Biomol). […] These FTIs have the same mechanism of action and can be used interchangeably to inhibit protein farnesylation in vitro. However, only lonafarnib is a clinical candidate. Normal and HGPS fibroblasts were treated with one daily dose of 0, 0.5, 1.0, or 2.0 μM of lonafarnib for 3 days.
GFP Localization and Fluorescence Microscopy. Forty-eight hours following transient transfection, the HeLa and HEK-293 cells were visualized for GFP localization using an LSM510 confocal microscope (Zeiss). […]

The subject of data set [4] is human brain, lung, prostate, pancreas, colon, and bladder tumor xenografts. As to conditions: nude mice; cited from earlier work.
Data set [5] has as its system protein farnesylation. As to conditions: Phase I clinical trial; cited from earlier work.
Data set [6] concerns HeLa cells transfected with wild-type lamin A-CSIM, progerin-CSIM, progerin-SSIM or progerin-CSIL. Put plainly: Nuclear blebbing and GFP localization in transiently transfected HeLa cells treated with FTI. The class given is cell-based. As to conditions: 48 hours. On the procedure:
Transient Transfections. Approximately 25,000 cells were plated per chamber of 4-chamber slides (Lab-Tek, Nalge Nunc International, #154526). After twenty-four hours, HeLa and HEK-293 cell lines were transiently transfected with 0.8 μg of each construct using LIPOFECTAMINE®2000 transfection reagent (Invitrogen) under standard conditions.
as §1
GFP Localization and Fluorescence Microscopy. Forty-eight hours following transient transfection, the HeLa and HEK-293 cells were visualized for GFP localization using an LSM510 confocal microscope (Zeiss). Following three-day treatment with lonafarnib, HGPS fibroblasts were washed two times with phosphate-buffered saline (PBS) (pH 7.2) and fixed for 10 minutes at room temperature with 1% paraformaldehyde in PBS. Following three washes with PBS, the cells were permeabilized for 5 minutes at room temperature with 0.5% Triton X-100 in PBS and blocked with 5% horse serum for 30 minutes at room temperature. Cells were then incubated for one hour at room temperature with the primary antibody diluted in blocking solution, a […] mouse anti-human lamin A/C at 1:10 (mAb3211, Chemicon). Three more washes with PBS were then followed by incubation with the secondary antibody, Alexa 488-conjugated donkey anti-mouse IgG (Molecular Probes), for 45 minutes and three additional PBS washes. Slides were then mounted with mounting medium containing DAPI (Vector Laboratories).
Morphometric Analysis. To examine the overall percentage of blebbed cells in cells with different amounts and lengths of FTI treatment, 200 nuclei were classified as either blebbed, if they contained two or more lobulations, or not blebbed, as previously described (Goldman et al., Proc. Natl. Acad. Sci. USA 101:8963-8968, 2004). These classifications were done by three independent observers, all blinded to the specifics of the cells being examined, followed by averaging three independent data sets. Armitage's trend test (Armitage, Biometrics 11:375-386, 1955) was used to test for a dose-dependent response for each cell type.

For data set [7] the following is noted: Phase III trials, including trials involving children; cited from earlier work.

Take `NC(=O)N1CCC(CC(=O)N2CCC([C@H]3c4ncc(Br)cc4CCc4cc(Cl)cc(Br)c43)CC2)CC1` [lonafarnib]: the anti-leukemic activity result in data set [1] is recorded as “demonstrated”. Moreover, the “proliferation of several human cancer cell lines” value in data set [2] was “inhibit proliferation”. For the same compound, the “nuclear blebbing in HGPS fibroblasts” value in data set [3] is “significant dose-dependent reduction; also recorded: reversion of the nuclear blebbing”. In addition, the “activity against human tumor xenografts” value in data set [4] is on record as “active”. In data set [5], the “protein farnesylation in vivo” value is on record as “inhibits” and the tolerability result is listed as “generally well tolerated”. Moreover, in data set [6] (0 to 2.0 μM), the “change of nuclear blebbing, wild-type lamin A-CSIM” value is “unchanged; also recorded: does not change significantly” and the “percentage of nuclear blebbing, wild-type lamin A-CSIM” value is reported as “approximately 5%”. For the same compound, in data set [6] (2 μM single dose at transfection), the “nuclear blebbing, progerin-CSIM” value is recorded as “approaching normal blebbing percentages; also recorded: almost totally abolishes”. In addition, the “localization of progerin, progerin-CSIM” value in data set [6] (2 μM) is “relocalization of progerin into nucleoplasmic aggregates”. Moreover, the “dose response of nuclear blebbing, progerin-CSIM” value in data set [6] (single dose 0, 0.5, 1.0, 2.0 μM, p<0.0001) is “dramatic dose-dependent response”. Moreover, in data set [6] (up to 2 μM), the “nuclear blebbing, progerin-CSIL” value is recorded as “completely resistant; also recorded: resistant to FTI treatment; also recorded: resistant to inhibition of farnesylation” and the “phenotype, progerin-SSIM” value is given as “no difference; also recorded: does not change significantly”. The tolerability result in data set [7] is recorded as “well tolerated”.
